# Test results reported in US8236808B2, “Pyrazine derivatives as ENAC blockers” (Novartis AG, priority 2008, dated 2012).
# Where a name gives a salt, the structure may show the parent alone.
# Target: T1, epithelial sodium channel (ENaC) (Homo sapiens, UniProt P37088+P51168+P51170)
# T1 construct: host or cells: primary human bronchial epithelial cells (HBECs), differentiated at the air-liquid interface
# T1 sequence (P37088 1-669): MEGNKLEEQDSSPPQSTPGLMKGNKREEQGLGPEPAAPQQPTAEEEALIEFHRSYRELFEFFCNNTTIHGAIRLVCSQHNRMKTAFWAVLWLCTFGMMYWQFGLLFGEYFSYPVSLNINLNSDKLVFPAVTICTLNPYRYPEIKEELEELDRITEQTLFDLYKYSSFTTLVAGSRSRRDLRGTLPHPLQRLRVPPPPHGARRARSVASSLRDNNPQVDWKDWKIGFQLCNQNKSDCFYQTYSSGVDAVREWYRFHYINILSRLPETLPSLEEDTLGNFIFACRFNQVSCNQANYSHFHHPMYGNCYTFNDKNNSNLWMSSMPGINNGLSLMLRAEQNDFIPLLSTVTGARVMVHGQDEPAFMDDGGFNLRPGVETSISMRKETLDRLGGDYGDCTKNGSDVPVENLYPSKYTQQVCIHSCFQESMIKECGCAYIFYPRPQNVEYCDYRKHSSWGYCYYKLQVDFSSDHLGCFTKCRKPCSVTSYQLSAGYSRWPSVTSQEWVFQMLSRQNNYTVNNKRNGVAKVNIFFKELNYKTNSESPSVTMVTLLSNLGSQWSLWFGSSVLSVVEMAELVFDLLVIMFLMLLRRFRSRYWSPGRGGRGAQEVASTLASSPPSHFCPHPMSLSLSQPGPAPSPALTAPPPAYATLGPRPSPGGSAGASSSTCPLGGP
# T1 sequence (P51168 1-640): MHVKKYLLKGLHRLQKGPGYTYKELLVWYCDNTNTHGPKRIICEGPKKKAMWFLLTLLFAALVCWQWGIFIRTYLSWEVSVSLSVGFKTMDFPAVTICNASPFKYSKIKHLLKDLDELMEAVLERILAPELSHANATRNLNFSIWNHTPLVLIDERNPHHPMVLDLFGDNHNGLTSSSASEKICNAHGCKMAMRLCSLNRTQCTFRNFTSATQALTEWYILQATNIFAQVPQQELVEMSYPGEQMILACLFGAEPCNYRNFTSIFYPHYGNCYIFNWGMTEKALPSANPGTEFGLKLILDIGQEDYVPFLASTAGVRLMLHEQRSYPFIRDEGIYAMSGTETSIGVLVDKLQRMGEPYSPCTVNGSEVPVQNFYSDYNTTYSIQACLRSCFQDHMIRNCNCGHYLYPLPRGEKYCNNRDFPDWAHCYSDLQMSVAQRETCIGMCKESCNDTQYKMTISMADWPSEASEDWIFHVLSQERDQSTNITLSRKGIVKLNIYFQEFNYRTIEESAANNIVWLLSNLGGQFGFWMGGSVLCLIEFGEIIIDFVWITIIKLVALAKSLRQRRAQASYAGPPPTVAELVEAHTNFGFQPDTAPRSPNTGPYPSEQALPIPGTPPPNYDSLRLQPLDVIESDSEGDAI
# T1 sequence (P51170 1-649): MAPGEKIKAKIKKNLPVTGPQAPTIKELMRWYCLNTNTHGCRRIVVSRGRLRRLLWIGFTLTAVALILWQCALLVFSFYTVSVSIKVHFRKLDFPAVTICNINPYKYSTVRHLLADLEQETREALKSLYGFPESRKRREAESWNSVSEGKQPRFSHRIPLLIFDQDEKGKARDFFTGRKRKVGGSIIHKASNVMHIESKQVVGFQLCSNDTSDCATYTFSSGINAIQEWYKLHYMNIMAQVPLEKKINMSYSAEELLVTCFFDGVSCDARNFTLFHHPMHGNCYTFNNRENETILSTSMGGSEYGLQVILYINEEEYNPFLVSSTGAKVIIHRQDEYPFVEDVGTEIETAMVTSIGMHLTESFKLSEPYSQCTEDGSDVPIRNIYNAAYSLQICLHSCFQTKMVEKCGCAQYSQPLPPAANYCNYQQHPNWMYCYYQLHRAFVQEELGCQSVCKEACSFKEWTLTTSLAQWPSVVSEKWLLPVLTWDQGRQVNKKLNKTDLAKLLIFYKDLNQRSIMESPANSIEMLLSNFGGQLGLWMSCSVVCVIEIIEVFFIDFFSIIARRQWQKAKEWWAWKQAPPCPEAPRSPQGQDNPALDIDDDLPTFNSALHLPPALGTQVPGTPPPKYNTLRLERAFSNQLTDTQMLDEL
# Assay: Short circuit current (ISC) measurements in human bronchial epithelial cells, inhibition of amiloride-sensitive ISC
# Assay type: cell-based
# Conditions: inhibition of the amiloride-sensitive ISC; HBECs cultured at air-liquid interface, Ussing chamber, compound added to apical chamber
# Experimental: Compounds of formula (I), hereinafter referred to alternatively as “agents of the invention”, are useful as pharmaceuticals. In particular, the compounds have good ENaC blocker activity and may be tested in the following assays.
# Human Bronchial Epithelial cells (HBECs) (Cambrex) were cultured under air-liquid interface conditions to provide a well differentiated mucociliary phenotype.
# HBECs were cultured using a modification of the method described by Gray and colleagues (Gray et al., 1996). Cells were seeded in plastic T-162 flasks and were grown in bronchial epithelial cell growth medium (BEGM; Cambrex) supplemented with bovine pituitary extract (52 μg/mL), hydrocortisone (0.5 μg/mL), human recombinant epidermal growth factor (0.5 ng/mL), epinephrine (0.5 μg/mL), transferrin (10 μg/mL), insulin (5 μg/mL), retinoic acid (0.1 μg/mL), triiodothyronine ([…]), gentamycin (50 μg/mL) and amphotericin B (50 ng/mL). Medium was changed every 48 hours until cells were 90% confluent. Cells were then passaged and seeded (8.25×10^5 cells/insert) on polycarbonate Snapwell inserts (Costar) in differentiation media containing 50% DMEM in BEGM with the same supplements as above but without triiodothyronine and a final retinoic acid concentration of 50 nM (all-trans retinoic acid). Cells were maintained submerged for the first 7 days in culture, after which time they were exposed to an apical air interface for the remainder of the culture period. At this time, media was changed to DMEM:F12 media containing 2% v/v Ultroser G for the remainder of culture. Amphotericin B was removed from all media 3 feeds prior to use in the Ussing Chambers. Cells were used between days 7 and 21 after establishment of the apical-air interface. At all stages of culture, cells were maintained at 37° C. in 5% CO2 in an air incubator.
# Snapwell inserts were mounted in Vertical Diffusion Chambers (Costar) and were bathed with continuously gassed Ringer solution (5% CO2 in O2; pH 7.4) maintained at 37° C. containing (in mM): 120 NaCl, 25 NaHCO3, 3.3 KH2PO4, 0.8 K2HPO4, 1.2 CaCl2, 1.2 MgCl2, and 10 glucose. The solution osmolarity was between 280 and 300 mOsmol/kg H2O for all physiological salt solutions used. Cells were voltage clamped to 0 mV (model EVC4000; WPI). RT was measured by applying a 1- or 2-mV pulse at 30-s intervals and calculating RT by Ohm's law. Data were recorded using a PowerLab workstation (ADInstruments).
# Test compounds were prepared as a 10 mM stock solution in DMSO (95%). Serial 3-fold dilutions were freshly prepared in an appropriate vehicle (distilled H2O or Ringers solution). The initial concentration was added to the apical chamber as a 1000× concentrate in 5 μL, resulting in a final 1× concentration the 5 mL volume of the Ussing chamber. Subsequent additions of compound were added in a 3.3 μL volume of the 1000× serially diluted stock solution. At the completion of the concentration-response experiment, amiloride (10 μM) was added into the apical chamber to enable the total amiloride-sensitive current to be measured. An amiloride control IC50 was established at the start of each experiment.
# Results are expressed as the mean % inhibition of the amiloride-sensitive ISC. Concentration-response curves were plotted and IC50 values generated using GraphPad Prism 3.02. Cell inserts were typically run in duplicate and the IC50 calculated on the mean % inhibition data.
row,IC50,Compound
1,290 nM,"C[N+](C)(CCCCNS(=O)(=O)c1ccc(Cl)cc1)CCNC(=O)c1nc(Cl)c(N)nc1N [Example 100, [4-(4-Chloro-benzenesulfonylamino)-butyl]-{2-[(3,5-diamino-6-chloro-pyrazine-2-carbonyl)-amino]-ethyl}-dimethyl-ammonium bromide]"
2,220 nM,"COc1ccc(CCC[N+](C)(C)CCNC(=O)c2nc(Cl)c(N)nc2N)cc1 [Example 27, {2-[(3,5-diamino-6-chloro-pyrazine-2-carbonyl)-amino]-ethyl}-[3-(4-methoxy-phenyl)-propyl]-dimethyl-ammonium bromide]"
3,62 nM,"C[N+](C)(CCCCCNC(=O)Cc1ccc(OCc2ccccc2)cc1)CCNC(=O)c1nc(Cl)c(N)nc1N [Example 78, {5-[2-(4-Benzyloxy-phenyl)-acetylamino]-pentyl}-{2-[(3,5-diamino-6-chloro-pyrazine-2-carbonyl)-amino]-ethyl}-dimethyl-ammonium bromide]"
4,810 nM,"C[N+](C)(CCNC(=O)CCc1ccc(F)cc1)CCNC(=O)c1nc(Cl)c(N)nc1N [Example 38, {2-[(3,5-Diamino-6-chloro-pyrazine-2-carbonyl)-amino]-ethyl}-{2-[3-(4-fluoro-phenyl)-propionylamino]-ethyl}-dimethyl-ammonium hexafluorophosphate]"
5,20 nM,"CCC[C@@H](CNC(=O)c1nc(Cl)c(N)nc1N)[N+](C)(C)C [Example 5, ((S)-1-{[(3,5-Diamino-6-chloro-pyrazine-2-carbonyl)-amino]-methyl}-butyl)-trimethyl-ammonium trifluoroacetate]"
6,600 nM,"C[N+](C)(CCCNC(=O)Cc1ccccc1)CCNC(=O)c1nc(Cl)c(N)nc1N [Example 53, {2-[(3,5-Diamino-6-chloro-pyrazine-2-carbonyl)-amino]-ethyl}-dimethyl-(3-phenylacetylamino-propyl)-ammonium hexafluorophosphate]"
7,20 nM,"CCN(CC)CC[N+](CCCc1ccc(OC)cc1)(CCCc1ccc(OC)cc1)CCNC(=O)c1nc(Cl)c(N)nc1N [Example 19, {2-[(3,5-Diamino-6-chloro-pyrazine-2-carbonyl)-amino]-ethyl}-(2-diethylamino-ethyl)-bis-[3-(4-methoxy-phenyl)-propyl]-ammonium trifluoroacetate]"
8,140 nM,"C[N+](C)(CCNC(=O)CCc1ccccc1)CCNC(=O)c1nc(Cl)c(N)nc1N [Example 30, {2-[(3,5-Diamino-6-chloro-pyrazine-2-carbonyl)-amino]-ethyl}-dimethyl-2-[(3-phenyl-propionylamino)-ethyl]-ammonium hexafluorophosphate]"
9,170 nM,"C[N+](C)(C)[C@H](CNC(=O)c1nc(Cl)c(N)nc1N)Cc1ccccc1 [Example 13, {(S)-1-Benzyl-2-[(3,5-diamino-6-chloro-pyrazine-2-carbonyl)-amino]-ethyl}-trimethyl-ammonium iodide]"
10,250 nM,"C[N+](C)(CCCCCNS(=O)(=O)c1ccc(Cl)cc1)CCNC(=O)c1nc(Cl)c(N)nc1N [Example 94, [5-(4-Chloro-benzenesulfonylamino)-pentyl]-{2-[(3,5-diamino-6-chloro-pyrazine-2-carbonyl)-amino]-ethyl}-dimethyl-ammonium bromide]"
11,150 nM,"C[N+](C)(CCCCNC(=O)CCc1ccc(Cl)cc1)CCNC(=O)c1nc(Cl)c(N)nc1N [Example 65, {4-[3-(4-Chloro-phenyl)-propionylamino]-butyl}-{2-[(3,5-diamino-6-chloro-pyrazine-2-carbonyl)-amino]-ethyl}-dimethyl-ammonium hexafluorophosphate]"
12,10 nM,"CCC[C@@H](CNC(=O)c1nc(Cl)c(N)nc1N)[N+](C)(C)CCCc1ccc(O)cc1 [Example 121, ((S)-1-{[(3,5-Diamino-6-chloro-pyrazine-2-carbonyl)-amino]-methyl}-butyl)-[3-(4-hydroxy-phenyl)-propyl]-dimethyl-ammonium trifluoroacetate]"
